The text below walks through data of patent US20230140290A1, “SALICYLAMIDE DERIVATIVES AND RELATED METHODS OF MAKING” (THE BOARD OF REGENTS OF THE UNIVERSITY OF TEXAS SY, priority 2020, published 2023).

A value given as a limit tells only on which side of the number the result lay.

The subject of data set [1] is HAdV5-GFP. As to the kind of experiment: Plaque assay (inhibition of HAdV plaque formation). In kind it is cell-based, HAdV-5. The following applies: for Selectivity index (SI): ratio of CC50 to IC50 in plaque assay; for inhibition at 10 µM: read-out: Plaque Assay (%) Inhibition (10 μM); for IC50: read-out: Plaque Assay IC50 (μM), HAdV5-GFP, low MOI, 293β5 cell line. In outline: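 Cells at 80-90% confluency infected with HAdV5-GFP at 0.06 vp/cell, rocked 2 h at 37° C, then washed with PBS. Compounds tested at 10 μM and in dose-response from 10 to 0.3 μM, included in the post-infection mixture.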

The next data set has as its system A549 cells. Nature of the data set: Cytotoxicity assay (AlamarBlue). To be noted: read-out: CC50 (μM), cytotoxic concentration 50%; A549 cell line, 48 h. The procedure:
Cytotoxicity Assay. The cytotoxicity of the compounds was analyzed by commercial kit AlamarBlue® (Invitrogen, Ref. DAL1025). A549 cells at a density of 5×10^3 cells per well in 96-well plates were seeded. […] Cells were then incubated at 37° C. for 48 h following the kit protocol. The cytotoxic concentration 50 (CC50) value was obtained using the statistical package GraphPad Prism. This assay was performed in duplicate.

The subject of data set [2] is HAdV5-GFP. As to the kind of experiment: Entry assay (HAdV5-mediated GFP expression). Type of data set: cell-based, HAdV-5. To be noted: for inhibition at 50 µM: A549, 48 h, read-out: (%) Inhibition Entry Assay (50 μM). The procedure: Entry Assay. The anti-HAdV activity was measured in an entry assay using human A549 epithelial cells (3×10^5 cells/well in coming black wall, clear bottom 96-well plates) infected with HAdV5-GFP (2000 vp/cell) in the presence 50 μM of the candidates and in a dose-response assay. A standard infection curve was generated in parallel by infecting cells in the absence of compounds using serial 2-fold dilutions of virus. All reactions were done in triplicate. Cells, virus, and drugs were incubated for 48 h at 37° C. and 5% CO2.

In data set [3] the test system is wild-type HAdV5. As to the kind of experiment: Nuclear-associated HAdV genomes (real-time PCR). In kind it is cell-based, HAdV-5. The procedure:
(§1) Nuclear-Associated HAdV Genomes. The nuclear delivery of HAdV genomes was assessed by real-time PCR following nuclear isolation from infected cells. […] Forty-five minutes after infection, A549 cells were trypsinized and collected and then washed twice with PBS. Then, cytoplasmic and nuclear fractions were separated using a hypotonic buffer solution and NP-40 detergent. The cell pellet was resuspended in 500 μL of 1×hypotonic buffer (20 mM Tris-HCl pH 7.4, 10 mM NaCl, 3 mM MgCl2) and incubated for 15 min at 4° C. Then, 25 μL of NP-40 was added and the samples were vortexed. The homogenates were centrifuged for 10 min at 835 g at 4° C. Following the removal of the cytoplasmic fraction (supernatant), HAdV DNA was isolated from the nuclear fraction (pellet) and from the cytoplasmic fraction using the QIAamp DNA Mini Kit (QIAGEN, Valencia, Calif.).
as §1, with “E.Z.N.A.® Tissue” for “QIAamp”, “DNA” for “DNA Mini”, “(Omega Bio-tek, Norcross, Ga.).” for “(QIAGEN, Valencia, Calif.).”
In general terms: Quantitative PCR measures a nucleic acid by following its amplification.

Data set [4] concerns wild-type HAdV5. As to the kind of experiment: HAdV DNA quantification by real-time PCR (DNA replication). In kind it is cell-based, HAdV-5. To be noted: 24 h. The procedure: DNA Quantification by Real-Time PCR. […] Infected cells were incubated 24 h at 37° C. in 500 μL of complete DMEM containing 25 μM of either compounds or the same volume of DMSO (positive control). All samples were done in duplicate. After 24 h of incubation at 37° C., DNA was purified from the cell lysate with the QIAamp DNA Mini Kit (QIAGEN, Valencia, Calif.) following the manufacturer's instructions. TaqMan primers and probes for a common region of the HAdV5 were designed with the GenScript Real-Time PCR (TaqMan) Primer Design software (GenScript). […] Real-time PCR mixtures consisted of 9.5 μL of the purified DNA, AQ1 and AQ2 at a concentration of 200 nM each and Probe at a concentration of 50 nM in a total volume of 25 μL. The PCR cycling protocol was 95° C. for 3 min followed by 40 cycles of 95° C. for 10 s and 60° C. for 30 s. Human glyceraldehyde-3-phosphate dehydrogenase (GAPDH) gene was used as internal control. Oligonucleotides sequences for GAPDH and conditions were those previously reported by Henke-Gendo et al. (2012).
For quantification, gene fragments from hexon, and GAPDH were cloned into the pGEM-T Easy vector (Promega) and known concentrations of template were used to generate a standard curve in parallel for each experiment. All assays were performed in thermal cycler LightCycler® 96 System (Roche).
(§2) HAdV DNA Quantification by Real-Time PCR. […] All samples were done in duplicate. After 24 h of incubation at 37° C., DNA was purified from the cell lysate with the E.Z.N.A.® Tissue DNA Kit (Omega Bio-tek, Norcross, Ga.) following the manufacturer's instructions. TaqMan primers and probes for a common region of the HAdV5 were designed with the GenScript Real-Time PCR (TaqMan) Primer Design software (GenScript). […] Real-time PCR mixtures consisted of 9.5 μL of the purified DNA, AQ1 and AQ2 at a concentration of 200 nM each and Probe at a concentration of 50 nM in a total volume of 25 μL. The PCR cycling protocol was 95° C. for 3 min followed by 40 cycles of 95° C. for 10 s and 60° C. for 30 s. Human glyceraldehyde-3-phosphate dehydrogenase (GAPDH) gene was used as internal control. Oligonucleotides sequences for GAPDH and conditions were those previously reported by Henke-Gendo et al. (2012).
as §2, with “DNA” for “HAdV DNA”

[5] abbreviates: A549, read-out: IC50 Entry Assay (μM), HAdV5-GFP, high MOI, A549 cell line.
[6] abbreviates: FIG. 3, 45 min post infection, concentrations by CC50 (2-50 μM).
[7] abbreviates: FIG. 5A, 45 min post-infection, 10-fold plaque IC50.

As usually defined, the inhibition is the percentage by which the read-out fell short of the control. A word on the IC50: it is the concentration that inhibits the measured activity by half. With `CC(C)[C@H](NC(=O)c1cc(Cl)ccc1NS(C)(=O)=O)C(=O)Nc1ccc([N+](=O)[O-])cc1Cl` [Compound 70, (S)-5-Chloro-N-(1-((2-chloro-4-nitrophenyl)amino)-3-methyl-1-oxobutan-2-yl)-2-(methylsulfonamido)benzamide], in the data set on HAdV5-GFP [1], the “Selectivity index (SI)” value worked out at 256.0, the inhibition at 10 µM is 99.1 ± 1.2% and the IC50 is 0.68 µM. For the same compound, the CC50 in the data set with A549 cells amounted to 174 µM. The inhibition at 50 µM in the data set with HAdV5-GFP [2] worked out at 99.1 ± 1.2%. Moreover, the IC50 with HAdV5-GFP [2] (setting [5]) was 1.38 ± 0.1 µM. In addition, the “amount of nuclear-associated HAdV genomes versus DMSO” value with wild-type HAdV5 [3] (setting [6]) was “significant (p≤0.0001) reductions”.
On to `O=C(Nc1ccc([N+](=O)[O-])cc1)c1cc(Cl)ccc1O` [Compound 13, 5-Chloro-2-hydroxy-N-(4-nitrophenyl)benzamide], for which, in the data set on HAdV5-GFP [1], the inhibition at 10 µM came out at 98 ± 2.8% and the IC50 was determined as 0.11 µM. In addition, the inhibition at 50 µM in the data set on HAdV5-GFP [2] came to 100%. In addition, the “amount of nuclear-associated HAdV genomes versus DMSO” value in the data set with wild-type HAdV5 [3] (setting [6]) was “significant (p≤0.0001) reductions”.
In the case of `O=C(Nc1ccc(NCc2ccc(O)nc2)cc1Cl)c1cc(Cl)ccc1O` [Compound 112, 5-Chloro-N-(2-chloro-4-(((6-hydroxypyridin-3-yl)methyl)amino)phenyl)-2-hydroxybenzamide], in the data set on HAdV5-GFP [1], the “Selectivity index (SI)” value is recorded as 126.3, the inhibition at 10 µM was determined as 100% and the IC50 is 0.78 µM. In the data set with A549 cells, the CC50 stood at 98.5 µM. The inhibition at 50 µM in the data set on HAdV5-GFP [2] worked out at 51.7 ± 9.8%. The IC50 in the data set with HAdV5-GFP [2] (setting [5]) was more than 50 µM. Moreover, in the data set on wild-type HAdV5 [3] (setting [7]), the “amount of nuclear-associated HAdV genomes versus DMSO” value is reported as “significant reductions”. Besides, the “inhibition of HAdV-5 DNA replication (qPCR)” value (from here on “inhibition … (qPCR)”) in the data set on wild-type HAdV5 [4] (FIG. 6A, 10-fold plaque IC50) is “low inhibition”.
Consider `CC(C)(Cc1ccccc1)ON(c1ccc(NC(=O)c2cc(Cl)ccc2O)c(Cl)c1)C(C)(C)Cc1ccccc1` [Compound 115, 5-Chloro-N-(2-chloro-4-((2-methyl-1-phenylpropan-2-yl)((2-methyl-1-phenylpropan-2-yl)oxy)amino)phenyl)-2-hydroxybenzamide], for which, in the data set on HAdV5-GFP [1], the “Selectivity index (SI)” value was 129.7, the inhibition at 10 µM came out at 100% and the IC50 was 1.27 µM. Also, in the data set with A549 cells, the CC50 is 165 µM. The inhibition at 50 µM in the data set with HAdV5-GFP [2] is 59.1%. The IC50 in the data set on HAdV5-GFP [2] (setting [5]) is 34.1 µM. Further, the “amount of nuclear-associated HAdV genomes versus DMSO” value in the data set with wild-type HAdV5 [3] (setting [7]) is “no significant differences”.
For `CC(C)(CCO)Nc1ccc(NC(=O)c2cc(Cl)ccc2O)c(Cl)c1` [Compound 118, 5-Chloro-N-(2-chloro-4-((4-hydroxy-2-methylbutan-2-yl)amino)phenyl)-2-hydroxybenzamide], in the data set with HAdV5-GFP [1], the “Selectivity index (SI)” value stood at 188.3, the inhibition at 10 µM was found to be 92.3% and the IC50 turned out to be 0.9 µM. The CC50 in the data set with A549 cells was determined as 170 ± 4.2 µM. Besides, the inhibition at 50 µM in the data set on HAdV5-GFP [2] stood at 42.1 ± 3%. In addition, the IC50 in the data set with HAdV5-GFP [2] (setting [5]) was more than 50 µM. The “amount of nuclear-associated HAdV genomes versus DMSO” value in the data set with wild-type HAdV5 [3] (setting [7]) was “no significant differences”. Besides, the “inhibition … (qPCR)” value in the data set with wild-type HAdV5 [4] (FIG. 6A, 10-fold plaque IC50) is “low inhibition”.
With `CC[C@@H](C)[C@H](NC(=O)c1cc(Cl)ccc1O)C(=O)Nc1ccc([N+](=O)[O-])cc1Cl` [Compound 62, 5-Chloro-N-((2S,3R)-1-((2-chloro-4-nitrophenyl)amino)-3-methyl-1-oxopentan-2-yl)-2-hydroxybenzamide], in the data set on HAdV5-GFP [1], the “Selectivity index (SI)” value was determined as 127.6, the inhibition at 10 µM was 99 ± 0.3% and the IC50 was 0.16 µM. Besides, the CC50 in the data set with A549 cells was found to be 20.2 µM. For the same compound, the inhibition at 50 µM in the data set with HAdV5-GFP [2] was found to be 98.2 ± 0.5%. Moreover, the IC50 with HAdV5-GFP [2] (setting [5]) amounted to 2.5 ± 0.22 µM. In addition, the “amount of nuclear-associated HAdV genomes versus DMSO” value in the data set on wild-type HAdV5 [3] (setting [6]) is reported as “significant (p≤0.0001) reductions”.
Take `O=C(Nc1ccc(NCc2ccc(O)cc2)cc1Cl)c1cc(Cl)ccc1O` [Compound 101, 5-Chloro-N-(2-chloro-4-((4-hydroxybenzyl)amino)phenyl)-2-hydroxybenzamide]: the “Selectivity index (SI)” value in the data set on HAdV5-GFP [1] is 104.1. For the same compound, the inhibition at 10 µM in the data set with HAdV5-GFP [1] turned out to be 80.7 ± 9.1%. Also, the IC50 with HAdV5-GFP [1] is 1.11 µM; with HAdV5-GFP [2] (setting [5]) it was 15.2 to 30.8 µM; in the data set on HAdV5-GFP [2] ({}), 25 ± 6.9 µM. In addition, the CC50 in the data set with A549 cells was determined as 116 µM. For the same compound, in the data set on HAdV5-GFP [2], the inhibition at 50 µM turned out to be 83.3%. Besides, in the data set on wild-type HAdV5 [3] (setting [7]), the “amount of nuclear-associated HAdV genomes versus DMSO” value is “significant reductions”. Further, in the data set with wild-type HAdV5 [4] (FIG. 6A, 10-fold plaque IC50), the “inhibition … (qPCR)” value was “low inhibition”.
Consider `O=C(Nc1cc(F)cc(C(F)(F)F)c1)c1ccc(Cl)cc1O` [Compound 20, 4-Chloro-N-(3-fluoro-5-(trifluoromethyl)phenyl)-2-hydroxybenzamide], for which, in the data set on HAdV5-GFP [1], the “Selectivity index (SI)” value worked out at 186.8, the inhibition at 10 µM amounted to 96.8 ± 1.9% and the IC50 was determined as 0.11 µM. In addition, the CC50 in the data set with A549 cells turned out to be 20.6 µM. Besides, in the data set on HAdV5-GFP [2], the inhibition at 50 µM came out at 100%. Moreover, in the data set with HAdV5-GFP [2] (setting [5]), the IC50 was 0.26 ± 0.09 µM. In addition, in the data set on wild-type HAdV5 [3] (setting [6]), the “amount of nuclear-associated HAdV genomes versus DMSO” value is “partially inhibited”. Besides, the “inhibition … (qPCR)” value in the data set on wild-type HAdV5 [4] (FIG. 4, concentrations by CC50 (2-50 μM)) is “low inhibition”.
